Patent US6828342B2, “Nitric esters and nitrate salts of specific drugs” (priority 1999, dated 2004)
Counter-ions that a name gives are not always drawn.

Tests used:
[1] = system: phenol red in the tracheal secretion; test: Mucolitic activity in mice: phenol red in the tracheal secretion; type: in vivo
Procedure: Mucolitic Activity in Mice of Ambroxol Nitrate and Ambroxol Hydrochloride
Mucolitic activity in male mice was evaluated according to the Method of Engler and Zselenyi, J. Pharm. Methods 11, 151, 1984. By this method it is determined the quantity of phenol red in the tracheal secretion. The animals were previously administered i.p. at a dose of 500 mg/Kg with the dye dissolved in physiologic solution. 3 groups of mice (weight 18±2 g), of 10 animal each, were treated i.p. with the dye. One group was the control group. Each of the two treated groups received, ten minutes before the above injection, an i.p. injection of 264 micromoles/Kg of Ambroxol nitrate or Ambroxol hydrochloride, respectively. 30 minutes after the phenol red injection, the animals were sacrificed. The trachea was freed from the sorrounding tissues, dissected and washed for 30 minutes in 3 ml of physiologic solution. 0.1 ml of 1 M sodium hydroxyde were then added to the physiologic solution. The washings were centrifuged for 15 minutes at 3000 rpm. A spectrophotometric assay was performed on the supernatant in order to determine the concentration of phenol red in the physiologic solution. Mucolitic activity was determined as % variation of absorbance of the sample in the confront of that of the control group, assumed to be 100%.

[2] = system: histamine-induced bronchoconstriction; test: Antihistaminic activity: experimental bronchoconstriction by histamine in the guinea pig; conditions: result in words
[3] = system: cough strokes caused by citric acid aerosol; test: Anti-tussive activity: cough strokes caused by citric acid aerosol in the guinea pig; type: in vivo; conditions: 110 micromoles/Kg i.p.; for cough strokes (%): citric acid 7.5% aerosol, 30 minutes before aerosol, cough strokes over 10 minutes referred to control = 100%; for Antitussive potency compared with the corresponding hydrochlorides: result in words
Procedure: Anti-tussive Activity in the Guinea Pig of Dextromethorphan Hydrochloride, Dextromethorphan Nitrate, Dextrorphan Hydrochloride and Dextrorphan Nitrate
Guinea pigs (weight: 430+20) were treated as described by Braga et Al. Arzneim. Forsch./Drug Res. 43, 550, 1993.
In this pharmacological experiment 5 groups of 8 animals each were formed. One group was not treated and was the control group.
Each animal was placed in a cilindrical glass container having one tubing through each of the two circular flat surfaces. Said tubing were, respectively, for the aerosol inlet and outlet. The outlet tubing is connected to a polygraphic system.
The aerosol was formed from a solution 7.5% by weight of citric acid in water.
The air variation inside the glass container was registered before and after a cough stroke caused by the aerosol. One hour later Dextromethorphan hydrochloride, Dextromethorphan nitrate, Dextrorphan hydrochloride and dextrorphan nitrate were i.p. administered in a physiologic solution at a dose of 110 micromoles/Kg. 30 minutes after the injection the animals were treated with the aerosol. It was then registered the number of cough strokes for a time of 10 minutes. In the following Table III are reported the average response obtained from each treated group, referred to that of the control group, made 100%.

[4] = system: bronchoconstrictive response induced by capsaicin; test: Experimental bronchoconstriction induced by capsaicin in the guinea pig (tidal air variation, Konzett apparatus); type: in vivo; conditions: 0.3 nmoles/min i.v., result in words
Procedure: Each groups consisted of eight animals. […] For a total 15 minutes, starting from 5 minutes before capsaicin injection to 10 minutes after) Salbutamol (0.3 nmoles/min), or the corresponding nitrate salt (0.3 nmoles/min) or only the carrier were administered by intravenous infusion were administered to each group. […] The heart frequency was determined by an electrocardiographic device, according to the usual methods.

heart frequency = test: Heart frequency (tachycardia) by electrocardiographic device in the capsaicin bronchoconstriction study; type: in vivo; conditions: guinea pig; 0.3 nmoles/min i.v. infusion; heart frequency as percent with respect to the control (carrier 188 ±7 beats per minute = 100); Nitrate Salt
Procedure: Each groups consisted of eight animals. […] For a total 15 minutes, starting from 5 minutes before capsaicin injection to 10 minutes after) Salbutamol (0.3 nmoles/min), or the corresponding nitrate salt (0.3 nmoles/min) or only the carrier were administered by intravenous infusion were administered to each group.
The heart frequency was determined by an electrocardiographic device, according to the usual methods.

Nc1c(Br)cc(Br)cc1CNC1CCC(O)CC1 (centres unmarked) [Ambroxol hydrochloride, reference compound]
Mucolitic activity (%) ([1]; male mice, 264 micromoles/Kg i.p. ten minutes before phenol red 500 mg/Kg i.p., % variation of absorbance versus control group = 100%, hydrochloride): 30%

Nc1c(Br)cc(Br)cc1CNC1CCC(O)CC1 (centres unmarked) [Ambroxol nitrate, Ambroxol Nitrate Salt]
Mucolitic activity compared with the corresponding hydrochloride ([1]; mice, 264 micromoles/Kg i.p., result in words): higher than that of the corresponding hydrochloride

O=C(O)COCCN1CCN(C(c2ccccc2)c2ccc(Cl)cc2)CC1 (centres unmarked) [Cetirizine nitrate, Cetirizine Nitrate Salt]
Antihistamine activity compared with Cetirizine hydrochloride [2]: improved antihistamine activity

COc1ccc2c(c1)[C@@]13CCCC[C@H]1[C@@H](C2)N(C)CC3 [Dextromethorphan hydrochloride, reference compound]
cough strokes (%) ([3]; hydrochloride): 30%

COc1ccc2c(c1)[C@@]13CCCC[C@H]1[C@@H](C2)N(C)CC3 [Dextromethorphan nitrate, Dextromethorphan Nitrate Salt]
Antitussive potency compared with the corresponding hydrochlorides [3]: more potent antitussive agents than the corresponding hydrochlorides
cough strokes (%) ([3]; Nitrate Salt): 0%

CN1CC[C@]23CCCC[C@H]2[C@H]1Cc1ccc(O)cc13 [Dextrorphan hydrochloride, reference compound]
cough strokes (%) ([3]; hydrochloride): 40%

CN1CC[C@]23CCCC[C@H]2[C@H]1Cc1ccc(O)cc13 [Dextrorphan nitrate, Dextrorphan Nitrate Salt]
Antitussive potency compared with the corresponding hydrochlorides [3]: more potent antitussive agents than the corresponding hydrochlorides
cough strokes (%) ([3]; Nitrate Salt): 0%

CC(C)(C)NCC(O)c1ccc(O)c(CO)c1 (centres unmarked) [Salbutamol · HNO3, Salbutamol Nitrate Salt]
Inhibition of the bronchoconstrictive response induced by capsaicin, compared with Salbutamol [4]: as effective as Salbutamol
Tachycardia (%) (heart frequency): 97%
